# Measured values reported in patent publication US20170348277A1, “CANNABINOID FORMULATION INCLUDING A V[…] OCULAR DELIVERY OF THE SAME” (priority 2017, published 2017).
# What was measured:
# [1] = oral; cited from earlier work
# [2] = Vasodilators studied for increasing the rate of delivery of cannabinoids to a desired site of action; settings: vasodilator in cannabinoid formulation
# Source text: Various vasodilators have been studied that have the desired effect of increasing the rate of delivery of cannabinoids to a desired site of action. […] The classes of vasodilators that may be substituted for the MSM of the present invention either in a preferred combination or in isolation. These classes include: • Alpha-adrenoceptor antagonists (alpha-blockers) • Angiotensin converting enzyme (ACE) inhibitors • Angiotensin receptor blockers (ARBs) • Beta2-adrenoceptor agonists (β2-agonists) • Calcium-channel blockers (CCBs) • Centrally acting sympatholytics • Direct acting vasodilators • Endothelin receptor antagonists • Ganglionic blockers • Nitrodilators • Phosphodiesterase inhibitors • Potassium-channel openers • Renin inhibitors
substance,measurement,setting,value
methylsulfonylmethane [MSM],safe dose when taken orally,[1],up to 2 gm/kg of body weight per day
same,increasing the rate of delivery of cannabinoids to a desired site of action,[2],sufficiently effective
